Test results from patent publication US20180021485A1, “METHOD FOR MANUFACTURING DRUG-CONTAINING BIODEGRADABLE FIBER MATERIAL BY ELECTROSPINNING” (ORTHOREBIRTH CO., LTD., priority 2015, published 2018).

Legend:
[1] = Direct intraperitoneal administration of carboplatin to mice; type: in vivo, mouse; details: same amount of carboplatin as contained in the cotton-like carrier
Method: On the other hand, the mice to which PBS was administered lived three weeks or more after administration, and were therefore euthanized in the fourth week after administration.

[2] = LD50 of carboplatin intraperitoneally administered to mice; type: in vivo; details: mouse having a body weight of 30 g
[3] = intraperitoneally administered to mice; cited from earlier work

N.N.O=C([O-])C1(C(=O)[O-])CCC1.[Pt+2] [carboplatin, cis-Diamine(1,1-cyclobutanedicarboxylato)platinum (II)]
survival after direct intraperitoneal administration ([1]; healthy mice): all the mice died within several days
findings at dissection after direct intraperitoneal administration [1]: The intestines were necrosed and became dysfunctional
LD50 per mouse [2]: 4.5 mg
LD50 (50% lethal dose) [3]: 150 mg/kg
